Consider 28 molecules from US11160764B2, “Drug delivery composition containing silyl polymers” (Medherant Limited, priority 2015, dated 2021).

≈ marks a conversion by molar mass, not a printed value. Read-outs that look alike come from different tables or passages of the source. A value given as a limit tells only on which side of the number the result lay.

The conditions of data set [1]: cited from earlier work.
A short description of data set [2]: Solubility of drugs in the adhesive compositions / patches. The protocol: Three different grades of composition were employed in solubility experiments: A, B and C (see below). A is the grade which was used for initial studies and further was used as the standard grade for solubility tests.
A sample of composition is pre-heated to 80° C. in a closed cartridge or inert environment to avoid contact with moisture and approximately 10 ml of the composition is added into a beaker and weighed. A desired quantity of drug, preservative and excipients are then added to the mixture. The mixture is mixed until it has been homogenised and is then cast with the help of a heated Meyer bar onto a release liner. Once cast, the layers of composition are cured at 60° C. in a humid environment during 16 hours.
In all experiments benzyl alcohol (BenzOH) was employed as a co-solvent. BenzOH is widely used in both pharmaceutical and cosmetic formulations as a preservative, and therefore its addition is required to improve the shelf life of patches. […] Additionally, it acts as a solvent for drugs improving their dissolution in the polymer matrix compositions. The total amount of BenzOH in all formulations was in a range of 1-3% w/w.
All compounds in the liquid state were added by volume, which was estimated using their specific densities.

The nature of data set [3]: Drug release analysis: permeation from patch across Pion membrane in Franz cell. The note with it: patch of the invention, PBS pH 7.4. The method, then:
The membrane and patch are then placed in a Franz cell and then a PBS pH 7.4 buffer solution is added. Samples are taken at one hour interval for 8 hours. The amount of drug released is calculated using a validated HPLC/UV-Vis method depending on the drug in question.

On to `C[C@@H]1CC[C@H]2[C@@H](C)C(=O)O[C@@H]3O[C@@]4(C)CC[C@@H]1[C@]32OO4` [Artemisinin], for which the Solubility in water entry in data set [1] is “insoluble”. Also, in data set [2], the Max. mass fraction was determined as 9%, the Sol. type entry was “Molecular” and the “Soluble in A” value is “✓”.
As for `C[C@H]1[C@H](OC(=O)CCC(=O)O)O[C@@H]2O[C@@]3(C)CC[C@H]4[C@H](C)CC[C@@H]1[C@@]24OO3` [Artesunate], the Solubility in water in data set [1] is 0.056 mg/mL (≈ 146 µM). In data set [2], the Max. mass fraction was 6%, the Sol. type entry is “Molecular” and the “Soluble in A” value is on record as “✓”.
Consider `CC(=O)Oc1ccccc1C(=O)O` [Aspirin], for which, in data set [2], the Sol. type entry was “Dispersion”.
In the case of `Cn1c(=O)c2c(ncn2C)n(C)c1=O` [Caffeine], the Permeated drug amount was found to be 0.19 μg cm^−2 in data set [3] (sample 1 hours), 2.33 μg cm^−2 in data set [3] (sample 2 hours), 3.26 μg cm^−2 in data set [3] (sample 4 hours) and 21.89 μg cm^−2 in data set [3] (sample 6 hours).
With `[H]/N=C(\N/C(=N/[H])NCCCCCCNC(=N)NC(=N)Nc1ccc(Cl)cc1)Nc1ccc(Cl)cc1` [Chlorhexidine], the Sol. type result in data set [2] is listed as “Molecular”. Besides, the “Solubility in compositions and patches of the invention” value in data set [2] (Medherant patches / compositions of the invention) is approximately 3.5 % w/w. For the same molecule, in data set [2] (grade A composition (Table 5)), the Max. mass fraction is recorded as 3.5% and the “Soluble in A” value is recorded as “✓”.
With `Cc1ccc2c(Cl)cc(Cl)c(O)c2n1` [Chlorquinaldol], the Solubility in water result in data set [1] is listed as “insoluble”. Moreover, in data set [2] (grade A composition (Table 5)), the Max. mass fraction is 15%, the Sol. type result is “Molecular” and the “Soluble in A” value was “✓”. For the same molecule, the “Solubility in compositions and patches of the invention, in words” value in data set [2] (grades of the compositions of the invention) is “good dissolution”. The “Concentration / mass fraction in patches can be increased up to” value in data set [2] (patches of the invention) is listed as “up to 15 % w/w”.
Consider `O=C(O)Cc1ccccc1Nc1c(Cl)cccc1Cl` [Diclofenac], for which the Permeated drug amount in data set [3] (sample 1 hours) came out at 0.11 μg cm^−2; in data set [3] (sample 2 hours), 0.16 μg cm^−2; in data set [3] (sample 4 hours) it was 0.39 μg cm^−2; in data set [3] (sample 6 hours) it was 0.47 μg cm^−2.
As for `CC(C(=O)O)c1ccc(-c2ccccc2)c(F)c1` (stereo not shown) [Flurbiprofen], in data set [1], the Solubility in water was 0.025 mg/mL (≈ 102 µM). In addition, the Sol. type entry in data set [2] is given as “Molecular”. Further, in data set [2] (grade A composition), the “Conc., wt %” value is given as more than 5 wt % and the “Solubility of analgesic drugs in compositions: A” value (“Solubility … in compositions: A” for short) is “✓”. Further, in data set [2] (grade A composition (Table 5)), the Max. mass fraction was 15% and the “Soluble in A” value is “✓”. In data set [2] (grade B composition), the “Conc., wt %” value was more than 5 wt % and the “Solubility of analgesic drugs in compositions: B” value (from here on “Solubility … in compositions: B”) is on record as “✓”.
In the case of `CC(C)Cc1ccc(C(C)C(=O)O)cc1` (stereo not shown) [Ibuprofen], the Permeated drug amount in data set [3] (sample 1 hours) was 15.46 μg cm^−2; in data set [3] (sample 2 hours) it was 37.23 μg cm^−2; in data set [3] (sample 4 hours), 73.85 μg cm^−2; in data set [3] (sample 6 hours), 99.60 μg cm^−2.
On to `COc1ccc2c(c1)c(CC(=O)O)c(C)n2C(=O)c1ccc(Cl)cc1` [Indomethacin], for which, in data set [1], the Solubility in water is 0.002 mg/mL (≈ 5.59 µM). Besides, in data set [2], the “Conc., wt %” value is on record as more than 5 wt %; the Max. mass fraction is 10%; the Sol. type entry is listed as “Molecular”; the “Solubility … in compositions: A” value is “✓”. For the same molecule, in data set [2], the “Solubility … in compositions: B” value was “✓” and the “Soluble in A” value is “✓”.
Consider `CC(C(=O)O)c1cccc(C(=O)c2ccccc2)c1` (stereo not shown) [Ketoprofen], for which the Permeated drug amount in data set [3] (sample 1 hours) stood at 0.90 μg cm^−2; in data set [3] (sample 2 hours), 4.59 μg cm^−2; in data set [3] (sample 4 hours) it was 17.37 μg cm^−2; in data set [3] (sample 6 hours), 35.67 μg cm^−2.
Regarding `CC(C)[C@@H]1CC[C@@H](C)C[C@H]1O` [Levomenthol], in data set [2], the “Conc., wt %” value was more than 5 wt % and the Max. mass fraction is recorded as 30%.
Regarding `CN(Cc1cnc2nc(N)nc(N)c2n1)c1ccc(C(=O)N[C@@H](CCC(=O)O)C(=O)O)cc1` [Methotrexate], the Solubility in water entry in data set [1] is recorded as “insoluble”. Besides, the Sol. type entry in data set [2] is “Molecular”. For the same molecule, in data set [2] (grade A composition (Table 5)), the Max. mass fraction is listed as 7% and the “Soluble in A” value is reported as “✓”.
In data set [3] (sample 1 hours), `CN1CCCC1c1cccnc1` (stereo not shown) [Nicotine] had a Permeated drug amount of 2.26 μg cm^−2. The molecule also yielded a Permeated drug amount in data set [3] (sample 2 hours) of 5.05 μg cm^−2. The molecule also displayed a Permeated drug amount in data set [3] (sample 4 hours) of 13.76 μg cm^−2. In addition, in data set [3] (sample 6 hours), the Permeated drug amount came out at 18.33 μg cm^−2. Besides, in data set [2], the “Concentration / mass fraction in patches can be increased up to” value is on record as “up to 30 % w/w”; the Max. mass fraction is on record as 30%; the Sol. type result was “Molecular”; the “Solubility in compositions and patches of the invention, in words” value is “freely soluble”. In data set [2], the “Soluble in A” value is recorded as “✓”.
For `C[C@@H]1[C@H](O)[C@@H](C)/C=C/C=C/CC/C=C/C=C/C=C/C=C/C(O[C@H]2O[C@H](C)[C@@H](O)[C@H](N)[C@@H]2O)CC2O[C@](O)(CC(O)C(O)CCC(O)CC(O)CC(O)CC(=O)O[C@H]1C)CC(O)C2C(=O)O` (stereo partly shown) [Nystatin], in data set [2] (grade A composition (Table 5)), the Sol. type result is given as “Molecular” and the “Soluble in A” value is “✓”.
Consider `CC1(C)S[C@@H]2[C@H](NC(=O)Cc3ccccc3)C(=O)N2[C@H]1C(=O)O` [Penicillin G], for which the Sol. type entry in data set [2] (grade A composition (Table 5)) was “Dispersion”.
As to `CN1C(C(=O)Nc2ccccn2)=C(O)c2ccccc2S1(=O)=O` [Piroxicam], in data set [2], the Sol. type entry is “Molecular”. In addition, in data set [2] (grade A composition), the “Conc., wt %” value was approximately 2.5 wt % and the “Solubility … in compositions: A” value was “✓”. In data set [2] (grade A composition (Table 5)), the Max. mass fraction is 2.5% and the “Soluble in A” value was “✓”. In addition, in data set [2] (grade B composition), the “Conc., wt %” value is approximately 2.5 wt % and the “Solubility … in compositions: B” value is “✓”. In data set [2] (standard grade (A)), this molecule registered a Limited solubility of approximately 2.5 % w/w.
`CCCN[C@H]1CCc2nc(N)sc2C1` [Pramipexole]: in data set [1], the Solubility in water is 3.9 mg/mL (≈ 18500 µM). In addition, the Sol. type entry in data set [2] was “Dispersion”.
On to `O=C(C1CCCCC1)N1CC(=O)N2CCc3ccccc3C2C1` (stereo not shown) [Praziquantel], for which, in data set [2], the Max. mass fraction is reported as 10%, the Sol. type entry was “Molecular” and the “Soluble in A” value is “✓”.
As to `C[C@]12C=CC(=O)C=C1CC[C@@H]1[C@@H]2[C@@H](O)C[C@@]2(C)[C@H]1CC[C@]2(O)C(=O)CO` [Prednisolone], in data set [2] (grade A composition (Table 5)), the Sol. type entry was “Dispersion”.
Turning to `CCCNC(C)C(=O)Nc1ccccc1C` (stereo not shown) [Prilocaine], the Solubility in water in data set [1] was 0.540 mg/mL (≈ 2450 µM). Further, in data set [2], the “Distribution of the drug in the patch” value was “uniformly distributed in the patch in a form of micro particles”; the Sol. type result is “Dispersion”; the “Solubility in the standard grade (A) composition, in words” value is “poor solubility”.
On to `CC(=O)[C@H]1CC[C@H]2[C@@H]3CCC4=CC(=O)CC[C@]4(C)[C@H]3CC[C@]12C` [Progesterone], for which the Solubility in water in data set [1] was 0.009 mg/mL (≈ 28.6 µM). In addition, in data set [2], the Max. mass fraction came to 15%, the Sol. type entry is listed as “Molecular” and the “Soluble in A” value is recorded as “✓”.
With `CC(C)(C)NCC(O)c1ccc(O)c(CO)c1` (stereo not shown) [Salbutamol], in data set [2], the Max. mass fraction came out at 5%, the Sol. type result is “Molecular” and the “Soluble in A” value was “✓”.
`O=C(O)c1ccccc1O` [Salicylic acid] gave a Permeated drug amount in data set [3] (sample 1 hours) of 3.38 μg cm^−2. The Permeated drug amount in data set [3] (sample 2 hours) came to 11.92 μg cm^−2. The same molecule returned a Permeated drug amount in data set [3] (sample 4 hours) of 31.75 μg cm^−2. The molecule also yielded a Permeated drug amount in data set [3] (sample 6 hours) of 54.71 μg cm^−2. For the same molecule, in data set [2], the “Conc., wt %” value is listed as more than 5 wt %; the Max. mass fraction was determined as 30%; the Sol. type entry is given as “Molecular”; the “Solubility in the standard grade (A) composition, in words” value is given as “readily soluble”. In data set [2], the “Solubility … in compositions: A” value is on record as “✓”, the “Solubility … in compositions: B” value is reported as “✓” and the “Soluble in A” value is given as “✓”.
With `O=C(Oc1ccccc1C(=O)O)c1ccccc1O` [Salsalate], in data set [1], the Solubility in water was 0.246 mg/mL (≈ 953 µM). Further, in data set [2], the “Conc., wt %” value is more than 5 wt %; the Max. mass fraction is 10%; the Sol. type result is listed as “Molecular”; the “Solubility … in compositions: A” value is on record as “✓”. Also, in data set [2], the “Solubility … in compositions: B” value was “✓” and the “Soluble in A” value is recorded as “✓”.
As to `C[C@]12CC[C@H]3[C@@H](CCC4=CC(=O)CC[C@@]43C)[C@@H]1CC[C@@H]2O` [Testosterone], in data set [2] (grade A composition (Table 5)), the Max. mass fraction worked out at 5%, the Sol. type entry was “Molecular” and the “Soluble in A” value was “✓”.
On to `COc1cc(Cc2cnc(N)nc2N)cc(OC)c1OC` [Trimethoprim], for which, in data set [2], the Sol. type result is “Dispersion”.
Turning to Ivermectin, in data set [2] (grade A composition (Table 5)), the Max. mass fraction came to 5%, the Sol. type entry is “Molecular” and the “Soluble in A” value is listed as “✓”.
